Source: patent publication US5604294A, “Macrocyclic immunomodulators” (priority 1994, dated 1997)

Each compound was assayed on human mixed lymphocyte reaction (MLR) (assay: human mixed lymphocyte reaction (MLR) assay (immunosuppressant activity)). Settings: Lymphocyte, Table 1.
Type: cell-based
Protocol: The immunosuppressant activity of the compounds of the present invention was determined using the human mixed lymphocyte reaction (MLR) assay described by Kino, T. et al. in Transplantation Proceedings, XIX(5):36-39,Suppl.

Row | SMILES | IC50 [nM]
1 | CC[C@@H]1/C=C(\C)C[C@H](C)C[C@H](OC)[C@H]2O[C@@](O)(C(=O)C(=O)N3CCCC[C@H]3C(=O)O[C@H](/C(C)=C/[C@@H]3CC[C@@H](O)[C@H](OC)C3)[C@H](C)C(N3CCNCC3)CC1=O)[C@H](C)C[C@@H]2OC (stereo partly drawn) [Example 27] | 521
2 | CC[C@@H]1/C=C(\C)C[C@H](C)C[C@H](OC)[C@H]2O[C@@](O)(C(=O)C(=O)N3CCCC[C@H]3C(=O)O[C@H](/C(C)=C/[C@@H]3CC[C@@H](O)[C@H](OC)C3)[C@H](C)c3cc1nn3CCO)[C@H](C)C[C@@H]2OC [Example 8] | 380
3 | CC[C@@H]1/C=C(\C)C[C@H](C)C[C@H](OC)[C@H]2O[C@@](O)(C(=O)C(=O)N3CCCC[C@H]3C(=O)O[C@H](/C(C)=C/[C@@H]3CC[C@@H](O)[C@H](OC)C3)[C@H](C)C(=O)CC1=O)[C@H](C)C[C@@H]2OC [Example 7] | 113
4 | CC[C@@H]1/C=C(\C)C[C@H](C)C[C@H](OC)[C@H]2O[C@@](O)(C(=O)C(=O)N3CCCC[C@H]3C(=O)O[C@H](/C(C)=C/[C@@H]3CC[C@@H](O)[C@H](OC)C3)[C@H](C)C(N3CCN(C)CC3)CC1=O)[C@H](C)C[C@@H]2OC (stereo partly drawn) [Example 17] | 47.4
5 | CC[C@@H]1/C=C(\C)C(O)[C@H](C)C[C@H](OC)[C@H]2O[C@@](O)(C(=O)C(=O)N3CCCC[C@H]3C(=O)O[C@H](/C(C)=C/[C@@H]3CC[C@@H](OC(=O)CI)[C@H](OC)C3)[C@H](C)[C@@H](O)CC1=O)[C@H](C)C[C@@H]2OC (stereo partly drawn) [Example 26] | 125
6 | CC[C@@H]1/C=C(\C)C(O)[C@H](C)C[C@H](OC)[C@H]2O[C@@](O)(C(=O)C(=O)N3CCCC[C@H]3C(=O)O[C@H](/C(C)=C/[C@@H]3CC[C@@H](O)[C@H](OC)C3)[C@H](C)[C@@H](OC(=O)CI)CC1=O)[C@H](C)C[C@@H]2OC (stereo partly drawn) [Example 25] | 203
7 | CC[C@@H]1/C=C(\C)C[C@H](C)C[C@H](OC)[C@H]2O[C@@](O)(C(=O)C(=O)N3CCCC[C@H]3C(=O)O[C@H](/C(C)=C/[C@@H]3CC[C@@H](O)[C@H](OC)C3)[C@H](C)C=CC1=O)[C@H](C)C[C@@H]2OC [Example 3] | 80
8 | CC[C@@H]1/C=C(\C)C[C@H](C)C[C@H](OC)[C@H]2O[C@@](O)(C(=O)C(=O)N3CCCC[C@H]3C(=O)O[C@H](/C(C)=C/[C@@H]3CCC(=O)[C@H](OC)C3)[C@H](C)[C@@H](O)CC1=O)[C@H](C)C[C@@H]2OC [Example 4] | 0.4
9 | CC[C@@H]1/C=C(\C)C[C@H](C)C[C@H](OC)[C@H]2O[C@@](O)(C(=O)C(=O)N3CCCC[C@H]3C(=O)O[C@H](/C(C)=C/[C@@H]3CC[C@@H](O)[C@H](OC)C3)[C@H](C)C(N3CCN(Cc4ccccc4)CC3)CC1=O)[C@H](C)C[C@@H]2OC (stereo partly drawn) [Example 16] | 191

Further lines, results first:

Row | IC50 [nM] | SMILES
10 | 9.3 | CC[C@@H]1/C=C(\C)C[C@H](C)C[C@H](OC)[C@H]2O[C@@](O)(C(=O)C(=O)N3CCCC[C@H]3C(=O)O[C@H](/C(C)=C/[C@@H]3CC[C@@H](O)[C@H](OC)C3)[C@H](C)[C@@H](OC(=O)CI)CC1=O)[C@H](C)C[C@@H]2OC [Example 21]
11 | 0.7 | CC[C@@H]1/C=C(\C)C[C@H](C)C[C@H](OC)[C@H]2O[C@@](O)(C(=O)C(=O)N3CCCC[C@H]3C(=O)O[C@H](/C(C)=C/[C@@H]3CC[C@@H](OC(=S)Oc4ccccc4)[C@H](OC)C3)[C@H](C)[C@@H](O)CC1=O)[C@H](C)C[C@@H]2OC [Example 1]
12 | 119 | CC[C@@H]1/C=C(\C)C[C@H](C)C[C@H](OC)[C@H]2O[C@@](O)(C(=O)C(=O)N3CCCC[C@H]3C(=O)O[C@H](/C(C)=C/[C@@H]3CC[C@@H](O)[C@H](OC)C3)[C@H](C)C(N3CCN(c4ccccc4)CC3)CC1=O)[C@H](C)C[C@@H]2OC (stereo partly drawn) [Example 18]
13 | 0.02 | CC[C@@H]1/C=C(\C)C[C@H](C)C[C@H](OC)[C@H]2O[C@@](O)(C(=O)C(=O)N3CCCC[C@H]3C(=O)O[C@H](/C(C)=C/[C@@H]3CC[C@@H](OC(=N)C(Cl)(Cl)Cl)[C@H](OC)C3)[C@H](C)[C@@H](O)CC1=O)[C@H](C)C[C@@H]2OC [Example 9]
14 | 1.4 | CC[C@@H]1/C=C(\C)C[C@H](C)C[C@H](OC)[C@H]2O[C@@](O)(C(=O)C(=O)N3CCCC[C@H]3C(=O)O[C@H](/C(C)=C/[C@@H]3CC[C@@H](OC(=O)CI)[C@H](OC)C3)[C@H](C)[C@@H](O)CC1=O)[C@H](C)C[C@@H]2OC [Example 23]

Same assay, conditions: Table 1

Row | SMILES | IC50 [nM]
15 | CC[C@@H]1/C=C(\C)C[C@H](C)C[C@H](OC)[C@H]2O[C@@](O)(C(=O)C(=O)N3CCCC[C@H]3C(=O)O[C@H](/C(C)=C/[C@@H]3CC[C@@H](OP(=O)(Oc4ccccc4)Oc4ccccc4)[C@H](OC)C3)[C@H](C)[C@@H](OP(=O)(Oc3ccccc3)Oc3ccccc3)CC1=O)[C@H](C)C[C@@H]2OC [Example 10] | 11.1
